Measurements: patent publication US20250282734A1 (Bayer Aktiengesellschaft, priority 2021, published 2025)
Where two headings read alike, the source gives them in different places. Marks after values point to notes of the source that are not given here.

Key:
[1] = Solubility free acid vs. salt, shake-flask method (Example 12); type: physicochemical
[2] = Determination of exposure in rat after intragastric administration (Example 13); type: in vivo; conditions: for AUC(0-t): female, plasma, po, read-out: AUC(0-tlast); for AUC(0-t) / AUC(0-tlast)norm / AUC(0-tlast): free acid in rat plasma
Procedure: Determination of exposure after intragastric application of test compounds was performed in female conscious rats with a body weight of 0.2 kg (minimum) to 0.25 kg (maximum). The test compounds were applied as bolus via intragastric probe to unfed female rats in solution or suspension in the vehicle ethanol/solutol/water (v/v/v 10/40/50).
At the indicated timepoints between 8 min and 24 h after dosing, 150 μl blood were sampled via a catheter from the vena jugularis. The samples were treated with K-EDTA as anticoagulant and stored cooled until further processing (refrigerator, 4° C.). The samples were centrifuged (15 min, 3000 rpm), then an aliquot of 100 μL was taken from the supernatant (plasma), precipitated by addition of 400 μL cold acetonitrile or methanol (abs.) and frozen at −20° C. over night. The samples were centrifuged (15 min, 3000 rpm), then 150 μL of the clear supernatant were taken for analytical testing. Analytics were performed using an Agilent 1200 HPLC-system with LCMS/MS detection.
The applied dose of cholinate according to the invention was adjusted as compared to free acid according to the difference in molecular weight. The resulting equivalent doses were used for comparison.

[3] = Solubility of cholinate vs free acid and other salts, shake-flask method (Example 14); type: physicochemical; conditions: aqueous solvents, pH 4.5 and above, FeSSIF and FaSSIF
Procedure: (§1) Preparation of FaSSIF (Fasted State Simulated Intestinal Fluid) blank solution: 4.2 g NaOH, 44.7 g NaH2PO4*2 H2O, and 61.86 g NaCl were dissolved in approximately 9.5 L demineralized water. Then, the pH of this solution was adjusted to 6.50+/−0.05 using HCl or NaOH, respectively. In the last step, the final volume was adjusted to 10.0 L by the addition of demineralized water.
Preparation of the final FaSSIF solution: 4.48 g SIF (Simulated Intestinal Fluids) powder (provider: biorelevant.com, Product code: FFF01 (May 2022)) were dissolved in approximately 500 mL FaSSIF blank solution, then the final volume was adjusted to 2.0 L by the addition of FaSSIF blank solution. After 2 hours, the solution was considered to be ready to use and was used within 48 hours.
as §1, with “FeSSIF (Fed” for “FaSSIF (Fasted”, “40.4” for “4.2”, “118.74” for “44.7”, “NaCl,” for “NaH2PO4*2 H2O,”, “82.4 mL glacial acetic acid” for “61.86 g NaCl”, “5.00+/−0.05” for “6.50+/−0.05”
Preparation of the final FeSSIF solution: 22.4 g SIF powder (provider: biorelevant.com, Product code: FFF01 (May 2022)) were dissolved in approximately 500 mL FeSSIF blank solution, then the final volume was adjusted to 2.0 L by the addition of FeSSIF blank solution. The solution was considered to be ready to use immediately after manufacturing and was used within 48 hours.

[4] = Hygroscopy, dynamic vapour sorption (DVS) isotherms (Example 15); type: physicochemical; conditions: for Change in mass [%], Desorption / Change in mass [%], Sorption: listed as Cholinate Form A
Procedure: Water sorption isotherms were determined using a DVS Resolution gravimetric sorption analyzer (London, UK), or a DVS Intrinsic instrument (Surface measurement Systems). The sample was dried for 1000 minutes at 0% relative humidity (R.H.). Afterwards the dry weight was recorded. […] The equilibrium criterion for each relative humidity set point was 0.002% per minute relative mass change as a function of time.

[5] = Dissolution profile, flow through cell in FeSSIF / FaSSIF (Example 16); type: physicochemical; conditions: micronized samples
Procedure: Prior to the measurements, the samples were micronized using a jet mill (MC DECJET 30) under nitrogen, with a pressure of 4.5 Bar for the injector and 4.0 Bar grinding pressure.
Dissolution rates of the drug substance were then determined using a flow through cell (FTC) from Sotax. All experiments were conducted in triplicates.
Then, the respective medium (FaSSIF or FeSSIF) was pumped through the cell with a pump rate of 2 mL/min for a total time of 14 minutes, resulting in a total volume of 28 mL. This volume was collected in time increments of 2 minutes, leading to 7 collected fractions with 4 mL each. The drug substance concentration of each fraction was determined by HPLC (external standard).

[6] = Thermodynamic stability of polymorphic form; type: physicochemical

In the case of `O=C(O)c1cc(NC(=O)C2(c3ccc(C(F)(F)F)cc3F)CC2)ccc1-c1cnn(C2CCC2)c1` [cholinate, 2-hydroxy-N,N,N-trimethylethanaminium 2-(1-cyclobutyl-1H-pyrazol-4-yl)-5-[({1-[2-fluoro-4-(trifluoromethyl)phenyl]cyclopropyl}carbonyl)amino]benzoate], the solubility ([1]; 0.1M HCl, 25 °C, simulated gastric fluid, thermodynamic from solid, 0.1M HCl, 25° C., read-out: Solubility) is reported as < 1 µg/mL, the solubility ([1]; Acetone, 25° C.) is reported as 412 µg/mL and the solubility ([1]; Acetonitrile, 25° C.) is reported as 3797 µg/mL. For the same molecule, the solubility ([1]; Ethanol, 25° C.) was >12500 µg/mL, the solubility ([1]; PEG 400, 25° C.) was 19159 µg/mL and the solubility ([1]; Phosphate buffer pH 8, 25° C.) was 10798 µg/mL. The solubility ([1]; Solutol/Ethanol/Water (40/10/50 V/V/V), 25° C.) was >35000 µg/mL, the solubility ([1]; Water, 25° C., stirred overnight) was >12500** mg/L and the solubility ([1]; acetate buffer, 25 °C, pH 4.5, aqueous buffer, thermodynamic from solid, Acetate buffer pH 4.5, 25° C., read-out: Solubility) was 2 µg/mL. For the same molecule, the “pH of the clear solution” value ([1]; solubility test in water, pH of water before stirring: 5.57) was “**pH of the clear solution: 8.32, pH of water before stirring: 5.57”, the AUC(0-t) ([2]; rat, 10 mg/kg, dose equiv. 10 mg/kg) was 60 µg·h/mL and the AUC(0-t) ([2]; rat, 248 mg/kg, dose equiv. 248 mg/kg) was 745 µg·h/mL. For the same molecule, the AUC(0-t) ([2]; rat, 495 mg/kg, dose equiv. 495 mg/kg) was 1000 µg·h/mL, the AUC(0-tlast)norm ([2]; dose equiv. 10 mg/kg) was 6 kg·h/L and the “AUC(0-tlast)” value ([2]; dose equiv. 30 mg/kg) was 146 µg·h/mL. For the same molecule, the AUC(0-tlast)norm ([2]; dose equiv. 30 mg/kg) was 4.8 kg·h/L, the “AUC(0-tlast)” value ([2]; dose equiv. 100 mg/kg) was 447 µg·h/mL and the AUC(0-tlast)norm ([2]; dose equiv. 100 mg/kg) was 4.5 kg·h/L. For the same molecule, the AUC(0-tlast)norm ([2]; dose equiv. 248 mg/kg) was 3 kg·h/L, the AUC(0-tlast)norm ([2]; dose equiv. 495 mg/kg) was 2 kg·h/L and the “Increase of plasma exposure of free acid with dose” value ([2]; rat, doses above 30 mg/kg, listed as cholinate salt) was “dose-proportional increase of exposure up to a dose of approximately 100 mg/kg”. For the same molecule, the “aqueous solubility, comparison in words” value [3] was “higher solubility than the amorphous or partially crystalline salts”, the “Change in mass [%], Desorption” value ([4]; 0% Relative humidity) was −0.14% and the “Change in mass [%], Sorption” value ([4]; 0% Relative humidity) was 0.00%. For the same molecule, the “Change in mass [%], Desorption” value ([4]; 10% Relative humidity) was 2.50%, the “Change in mass [%], Sorption” value ([4]; 10% Relative humidity) was 0.36% and the “Change in mass [%], Desorption” value ([4]; 20% Relative humidity) was 3.59%. For the same molecule, the “Change in mass [%], Sorption” value ([4]; 20% Relative humidity) was 0.56%, the “Change in mass [%], Desorption” value ([4]; 30% Relative humidity) was 5.08% and the “Change in mass [%], Sorption” value ([4]; 30% Relative humidity) was 0.75%. The “Change in mass [%], Desorption” value ([4]; 40% Relative humidity) was 6.98%, the “Change in mass [%], Sorption” value ([4]; 40% Relative humidity) was 0.95% and the “Change in mass [%], Desorption” value ([4]; 50% Relative humidity) was 9.30%. For the same molecule, the “Change in mass [%], Sorption” value ([4]; 50% Relative humidity) was 1.21%, the “Change in mass [%], Desorption” value ([4]; 60% Relative humidity) was 12.14% and the “Change in mass [%], Sorption” value ([4]; 60% Relative humidity) was 1.61%. The “Change in mass [%], Desorption” value ([4]; 70% Relative humidity) was 16.02%, the “Change in mass [%], Sorption” value ([4]; 70% Relative humidity) was 2.11% and the “Change in mass [%], Desorption” value ([4]; 80% Relative humidity) was 21.87%. The “Change in mass [%], Sorption” value ([4]; 80% Relative humidity) was 3.05%, the “Change in mass [%], Desorption” value ([4]; 90% Relative humidity) was 33.33% and the “Change in mass [%], Sorption” value ([4]; 90% Relative humidity) was 18.30%. The “Change in mass [%], Desorption” value ([4]; 95% Relative humidity) was 46.21%, the “Change in mass [%], Sorption” value ([4]; 95% Relative humidity) was 46.21% and the “Hygroscopicity, comparison in words” value ([4]; in particular at 30-50% relative humidity) was “less hygroscopic than the other salts”. For the same molecule, the “DVS Dm @ 30% R.H. (Sorption)” value ([4]; summarized results, 30% R.H.) was 0.8%, the “DVS Dm @ 50% R.H. (Sorption)” value ([4]; summarized results, 50% R.H.) was 1.2% and the “DVS Dm @ 80% R.H. (Sorption)” value ([4]; summarized results, 80% R.H.) was 3.1%. For the same molecule, the “Dissolution profile, comparison in words” value [5] was “better dissolution profile than the other salts” and the “Thermodynamic stability of the solid form” value [6] was “thermodynamically stable at room temperature and at least up to 35 °C”.
